Each block holds one molecule with its values, some of them ahead of it.
How the values were obtained:
[1] = 1H relaxometry: r1p and r2p relaxivity of Mn(II) complexes; type: physicochemical; conditions: for r1p / r2p: Mn(II) complex, pH = 7.4
Experimental: The relaxivity of Mn(II) complexes is one of the most important parameters that directly correlates with its MRI efficacy. Relaxivity is defined as the longitudinal (r1p) and transverse (r2p) water proton relaxation rate enhancement, provided by 1.0 mM concentration of the paramagnetic species. The relaxivity (r1p and r2p) of the Mn(II) complexes were determined using relaxometers operating at 0.49 T and 1.41 T field strength, in a HEPES buffer (I = 0.15 M NaCl) at different temperatures from the slopes of plots 1/T1,2 vs. (Mn(II)) for 4 concentrations of Mn(II) (data shown in Supporting Information Figures S24 and S25), and they are compared in Table 4.
The ^1H longitudinal (T1) and transverse (T2) relaxation times were measured by using Bruker Minispec MQ-20 and MQ-60 NMR analyzers (Bruker corporation, Billerica, MA, USA). The temperature of the sample holder was set at 25.0 or 37 (±0.2) °C, and controlled with a circulating water bath thermostat. The T1 values of the samples were determined by means of the inversion recovery method (180°–τ–90°), averaging 4–6 data points obtained at 12 different τ delay times, while T2 data were collected by using the Carl–Purcell–Meiboom–Gill (CPMG) spin-echo pulse sequence. Relaxivities were determined by published procedures (from the slopes of the plots of 1/T1,2 vs. (Mn(II)) for 4 concentrations of Mn(II)), in samples of 0.3–0.4 mL volume (data shown in Figures S24 and S25, Supplementary Information). The pH were set by either using a 0.05 M 4-(2-hydroxyethyl)-1-piperazine-ethanesulfonic acid (HEPES) buffer (pH = 7.4) or monitored (pH profiles) using a Metrohm 827 pH lab pH meter and a Metrohm 6.0234.100 combined electrode, in the pH range of 1.75–11.8.

[2] = 17O NMR and NMRD measurements (water exchange, rotation, hydration number); type: physicochemical
Experimental: The relaxivity of paramagnetic metal complexes is governed by several parameters, including the water exchange rate (kex), the rotational correlation time (τR), and the number of inner sphere water molecules (q). In order to obtain information for these parameters, temperature dependent ^17O NMR measurements (9.4 T) and nuclear magnetic relaxation dispersion (NMRD) experiments were carried out in the frequency range of 0.01–80 MHz, at 3 different temperatures (25, 37, and 50 °C). Since numerous physico-chemical parameters determine the relaxivity, the independent assessment of some of the parameters is essential for the correct characterization. The variable temperature ^17O NMR measurements can deliver information about kex and τR via the transverse (1/T2) and the longitudinal (1/T1) ^17O relaxation rates, respectively, while the ^17O chemical shifts (Δω) depend on q. Therefore, the transverse and longitudinal relaxation rates and chemical shifts for a [Mn(3,9-OPC2A)] complex and a diamagnetic reference sample (HClO4, pH = 3.3) have been determined in the aqueous solution.
The ^17O 1/T2r values and the NMRD data have been analyzed simultaneously by the Swift–Connick equations [31], as well as by the Solomon–Bloembergen–Morgan (SMB) and Freed models (see Supporting Information). In this calculation, the water exchange rate, kex^298; its activation enthalpy and entropy, ΔH^‡ and ΔS^‡; the rotational correlational time, τR; its activation energy, ER; the square of the zero-field splitting energy (ZFS), Δ^2; and the correlation time of its modulation, τv, have been determined and listed in Table 5, together with corresponding values of other complexes for comparison. As a result of the high number of parameters involved in the calculations, some have to be set to reasonable estimates based on literature data. Thus, the scalar coupling constant, A/ħO, is set to 33 × 10^6 rad s^−1, the distance between the metal ion, and the inner and outer sphere water protons are fixed to rMnH = 2.83 Å and aMnH = 3.6 Å, respectively; the diffusion coefficient and its activation energy are fixed to DMnH = 23 × 10^−10 m^2s^−1 and EMnH = 18 kJmol^−1, and the activation energy of the modulation of the zero-field-splitting, Ev to 1.0 kJmol^−1.
The hydration number has been fixed to q = 1, based on the relaxivity value measured at 20 MHz (r1 = 3.09 mM^−1s^−1), and on the value, 0.97 ± 0.2, determined for q using the method proposed by Gale et al..
A Bruker Avance 400 (9.4 T) spectrometer was used to measure the longitudinal (1/T1) and transverse (1/T2) relaxation rates, and the chemical shifts of an aqueous solution of the [Mn(3,9-OPC2A)] complex (pH = 7.4, 1.3 mM) and a diamagnetic reference (HClO4 acidified water, pH = 3.3) in the temperature range of 273–348 K. The temperature calibration was performed using literature protocols relying on ethylene glycol and methanol standards. The 1/T1 and 1/T2 values were determined by the inversion−recovery and the Carr−Purcell−Meiboom−Gill spin echo technique, respectively. To avoid susceptibility corrections of the chemical shifts, a glass sphere fitted into a 10 mm NMR tube was used to contain the samples. ^17O enriched water (10% H2^17O, CortecNet) was added to the solutions to improve sensitivity (circa 1% enrichment). Proton NMRD profiles of the [Mn(3,9-OPC2A)] complex (1.00 mM, pH = 7.4) were recorded in aqueous solution on a Stelar SMARTracer Fast Field Cycling relaxometer (0.01−10 MHz), and a Bruker WP80 NMR electromagnet adapted to variable field measurements (20−80 MHz) and controlled by a SMARTracer PC-NMR console (Stelar s.r.l., Mede, Italy). The temperature was monitored by a VTC91 temperature control unit and maintained by a gas flow. The temperature was determined by previous calibration with a Pt resistance temperature probe. […]

r1p ([1]; 0.49 T, 25 °C): 3.13(2) mM^−1s^−1
r2p ([1]; 0.49 T, 25 °C): 5.15(3) mM^−1s^−1
r1p ([1]; 0.49 T, 37 °C): 2.54(1) mM^−1s^−1
r2p ([1]; 0.49 T, 37 °C): 4.17(4) mM^−1s^−1
r1p ([1]; 1.41 T, 25 °C): 2.72(2) mM^−1s^−1
r2p ([1]; 1.41 T, 25 °C): 9.90(5) mM^−1s^−1
r1p ([1]; 1.41 T, 37 °C): 2.06(1) mM^−1s^−1
r2p ([1]; 1.41 T, 37 °C): 7.37(3) mM^−1s^−1
SMILES: O=C(O)CN1CCOCCN(CC(=O)O)Cc2cccc(n2)C1 [H23,9-OPC2A, 6-Oxa-3,9,15-triazabicyclo(9.3.1)pentadeca-1(15),11,13-triene-3,9-diacetic acid]

r1p in pure aqueous solution ([1]; 1.41 T, 25 °C): 2.70 mM⁻¹ s⁻¹
r1p near pH = 1.8 ([1]; 1.41 T, 25 °C, complex protonated and dissociated at low pH): 6.51 mM^−1s^−1
r1^298_20 MHz ([2]; 20 MHz, 298 K): 3.09 mM⁻¹ s⁻¹
ER ([2]; activation energy of rotation): 14.8 ± 0.6 kJmol^−1
τv^298 ([2]; correlation time of ZFS modulation): 19.3 ± 3.0 ps
q (method proposed by Gale et al.) ([2]; hydration number from 17O NMR line widths): 0.97 ± 0.2
q ([2]; hydration number, fixed during the fitting procedure): 1
τR^298 ([2]; rotational correlation time): 40.0 ± 1.1 ps
Δ^2 ([2]; square of the zero-field splitting energy): 17.8 ± 3.6 10^18s^−2
SMILES: O=C([O-])CN1CCOCCN(CC(=O)[O-])Cc2cccc(n2)C1.[Mn+2] [[Mn(3,9-OPC2A)]]
ΔH^‡ ([2]; activation enthalpy of water exchange): 28.5 ± 1.7 kJmol^−1
ΔS^‡ ([2]; activation entropy of water exchange): −1.9 ± 0.8 JK^−1mol^−1
kex^298 ([2]; water exchange rate with bulk solvent): 5.3 ± 0.4 × 10^7 s^−1
kex^298 ([2]; water exchange rate, fit of 17O NMR and NMRD data): 5.3 ± 0.4 10^7s^−1

From paper PMC8778187, “A New Oxygen Containing Pyclen-Type Ligand as a Manganese(II) Binder for MRI and ^52Mn PET Applications: Equilibrium, Kinetic, Relaxometric, Structural and Radiochemical Studies” (Molecules, 2022)
